Measurements: patent US20150105252A1, “SUBSTITUTED PYRAZOLES AS HERBICIDES” (E I DU PONT DE NEMOURS AND COMPANY, priority 2013, published 2015)

Legend:
velvetleaf [1] = assay: Test A postemergence; format: in vivo, Abutilon theophrasti
Procedure, shortened: (§1)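 Greenhouse test in loam soil/sand blend; compounds formulated in non-phytotoxic solvent with surfactant, applied as preemergence directed soil spray or postemergence to plants 2–10 cm tall at one- to two-leaf stage. Injury rated visually versus untreated controls after approximately 10 days on a 0 (no effect) to 100 (complete control) scale.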

ducksalad = assay: Test B flood; format: in vivo, Heteranthera limosa; conditions: 250 g ai/ha, visual rating on 0 to 100 scale (0 no effect, 100 complete control), 13 to 15 days
Description: (§2) Seeds selected from rice (Oryza sativa), sedge, umbrella (small-flower umbrella sedge Cyperus difformis), ducksalad (Heteranthera limosa), and barnyardgrass (Echinochloa crus-galli) were grown to the 2-leaf stage for testing. At time of treatment, test pots were flooded to 3 cm above the soil surface, treated by application of test compounds directly to the paddy water, and then maintained at that water depth for the duration of the test.
(§3) Treated plants and controls were maintained in a greenhouse for 13 to 15 days, after which time all species were compared to controls and visually evaluated. Plant response ratings, summarized in Table B, are based on a scale of 0 to 100 where 0 is no effect and 100 is complete control. A dash (-) response means no test result.

wheat [2] = assay: Test A postemergence; format: in vivo, Triticum aestivum
Procedure, shortened: as §1

pigweed [3] = assay: Test A postemergence; format: in vivo, Amaranthus retroflexus
Procedure, shortened: as §1

barnyardgrass [4] = assay: Test A preemergence; format: in vivo, Echinochloa crus-galli; conditions: 0 to 100 scale
Procedure, shortened: as §1

morningglory [5] = assay: Test A postemergence; format: in vivo, Ipomoea spp.
Procedure, shortened: as §1

foxtail, giant [6] = assay: Test A preemergence; format: in vivo, Setaria faberii; conditions: 0 to 100 scale
Procedure, shortened: as §1

barnyardgrass [7] = assay: Test A postemergence; format: in vivo, Echinochloa crus-galli; conditions: Postemergence
Procedure, shortened: as §1

sedge, umbrella = assay: Test B flood; format: in vivo, Cyperus difformis; conditions: 250 g ai/ha, visual rating on 0 to 100 scale (0 no effect, 100 complete control), 13 to 15 days
Description: as §2, §3

rice = assay: Test B flood; format: in vivo, Oryza sativa; conditions: 250 g ai/ha, visual rating on 0 to 100 scale (0 no effect, 100 complete control), 13 to 15 days
Description: as §2, §3

morningglory [8] = assay: Test A preemergence; format: in vivo, Ipomoea spp.; conditions: 0 to 100 scale
Procedure, shortened: as §1

crabgrass, large [9] = assay: Test A preemergence; format: in vivo, Digitaria sanguinalis; conditions: 0 to 100 scale
Procedure, shortened: as §1

pigweed [10] = assay: Test A preemergence; format: in vivo, Amaranthus retroflexus; conditions: 0 to 100 scale
Procedure, shortened: as §1

velvetleaf [11] = assay: Test A preemergence; format: in vivo, Abutilon theophrasti; conditions: 0 to 100 scale
Procedure, shortened: as §1

foxtail, giant [12] = assay: Test A postemergence; format: in vivo, Setaria faberii
Procedure, shortened: as §1

corn [13] = assay: Test A preemergence; format: in vivo, Zea mays; conditions: 0 to 100 scale
Procedure, shortened: as §1

corn [14] = assay: Test A postemergence; format: in vivo, Zea mays
Procedure, shortened: as §1

barnyardgrass [15] = assay: Test B flood; format: in vivo, Echinochloa crus-galli; conditions: 250 g ai/ha, visual rating on 0 to 100 scale (0 no effect, 100 complete control), 13 to 15 days
Description: as §2, §3

crabgrass, large [16] = assay: Test A postemergence; format: in vivo, Digitaria sanguinalis
Procedure, shortened: as §1

wheat [17] = assay: Test A preemergence; format: in vivo, Triticum aestivum; conditions: preemergence
Procedure, shortened: as §1

[18] = Postemergence, 500 g ai/ha, visual rating after approx. 10 days, 0 to 100 scale (0 no effect, 100 complete control)
[19] = postemergence, 125 g ai/ha, about 10 days, visual rating on 0 to 100 scale (0 no effect, 100 complete control)
[20] = Preemergence, 500 g ai/ha, 0 no effect, 100 complete control
[21] = preemergence, 125 g ai/ha, visual injury, approx. 10 days
[22] = 125 g ai/ha, 0 to 100 scale, 0 no effect, 100 complete control
[23] = 500 g ai/ha, visual rating after approx. 10 days, 0 to 100 scale (0 no effect, 100 complete control)
[24] = 125 g ai/ha, visual injury, 0 to 100 scale, approx. 10 days
[25] = 500 g ai/ha, visual injury after approx. 10 days, 0 to 100 scale (0 no effect, 100 complete control)

SMILES: CCCNC(=O)c1cc(C)n(Oc2ccnc(C(F)(F)F)c2)n1 [Compound 80]
- Velvetleaf plant response rating (velvetleaf [1]; [18]): 50
- Velvetleaf plant response rating (velvetleaf [1]; [19]): 10
- Plant response rating, Ducksalad (ducksalad): 0
- Wheat plant response rating (wheat [2]; [18]): 10
- Wheat plant response rating (wheat [2]; [19]): 0
- Pigweed plant response rating (pigweed [3]; [18]): 60
- Pigweed plant response rating (pigweed [3]; [19]): 40
- Barnyardgrass plant response rating (barnyardgrass [4]; [20]): 80
- Barnyardgrass plant response rating (barnyardgrass [4]; [21]): 10
- Morningglory plant response rating (morningglory [5]; [18]): 70
- Morningglory plant response rating (morningglory [5]; [19]): 30
- Foxtail, Giant plant response rating (foxtail, giant [6]; [20]): 90
- Foxtail, Giant plant response rating (foxtail, giant [6]; [21]): 40
- Barnyardgrass plant response rating (barnyardgrass [7]; [22]): 10
- Barnyardgrass plant response rating (barnyardgrass [7]; [23]): 40
- Plant response rating, Sedge, Umbrella (sedge, umbrella): 0
- Plant response rating, Rice (rice): 0
- Morningglory plant response rating (morningglory [8]; [20]): 60
- Morningglory plant response rating (morningglory [8]; [21]): 20
- Crabgrass, Large plant response rating (crabgrass, large [9]; [20]): 100
- Crabgrass, Large plant response rating (crabgrass, large [9]; [21]): 50
- Pigweed plant response rating (pigweed [10]; [20]): 100
- Pigweed plant response rating (pigweed [10]; [21]): 60
- Velvetleaf plant response rating (velvetleaf [11]; [20]): 50
- Velvetleaf plant response rating (velvetleaf [11]; [21]): 0
- Foxtail, Giant plant response rating (foxtail, giant [12]; [18]): 30
- Foxtail, Giant plant response rating (foxtail, giant [12]; [19]): 10
- Corn plant response rating (corn [13]; [20]): 0
- Corn plant response rating (corn [13]; [21]): 0
- Corn plant response rating (corn [14]; [18]): 30
- Corn plant response rating (corn [14]; [19]): 10
- Plant response rating, Barnyardgrass (barnyardgrass [15]): 0
- Crabgrass, Large plant response rating (crabgrass, large [16]; [18]): 70
- Crabgrass, Large plant response rating (crabgrass, large [16]; [19]): 10
- Wheat plant response rating (wheat [17]; [24]): 0
- Wheat plant response rating (wheat [17]; [25]): 10

SMILES: CCc1cc(C(=O)NC2CC2)nn1Oc1ccnc(C(F)(F)F)c1 [Compound 83, N-cyclopropyl-5-ethyl-1-[[(2-trifluoromethyl)-4-pyridinyl]oxy]-1H-pyrazole-3-carboxamide]
- Velvetleaf plant response rating (velvetleaf [1]; [18]): 30
- Velvetleaf plant response rating (velvetleaf [1]; [19]): 30
- Plant response rating, Ducksalad (ducksalad): 60
- Wheat plant response rating (wheat [2]; [18]): 40
- Wheat plant response rating (wheat [2]; [19]): 0
- Pigweed plant response rating (pigweed [3]; [18]): 20
- Pigweed plant response rating (pigweed [3]; [19]): 10
- Barnyardgrass plant response rating (barnyardgrass [4]; [20]): 90
- Barnyardgrass plant response rating (barnyardgrass [4]; [21]): 10
- Morningglory plant response rating (morningglory [5]; [18]): 70
- Morningglory plant response rating (morningglory [5]; [19]): 20
- Foxtail, Giant plant response rating (foxtail, giant [6]; [20]): 100
- Foxtail, Giant plant response rating (foxtail, giant [6]; [21]): 70
- Barnyardgrass plant response rating (barnyardgrass [7]; [22]): 10
- Barnyardgrass plant response rating (barnyardgrass [7]; [23]): 40
- Plant response rating, Sedge, Umbrella (sedge, umbrella): 70
- Plant response rating, Rice (rice): 10
- Morningglory plant response rating (morningglory [8]; [20]): 50
- Morningglory plant response rating (morningglory [8]; [21]): 10
- Crabgrass, Large plant response rating (crabgrass, large [9]; [20]): 100
- Crabgrass, Large plant response rating (crabgrass, large [9]; [21]): 100
- Pigweed plant response rating (pigweed [10]; [20]): 100
- Pigweed plant response rating (pigweed [10]; [21]): 90
- Velvetleaf plant response rating (velvetleaf [11]; [20]): 10
- Velvetleaf plant response rating (velvetleaf [11]; [21]): 0
- Foxtail, Giant plant response rating (foxtail, giant [12]; [18]): 60
- Foxtail, Giant plant response rating (foxtail, giant [12]; [19]): 20
- Corn plant response rating (corn [13]; [20]): 60
- Corn plant response rating (corn [13]; [21]): 10
- Corn plant response rating (corn [14]; [18]): 70
- Corn plant response rating (corn [14]; [19]): 10
- Plant response rating, Barnyardgrass (barnyardgrass [15]): 0
- Crabgrass, Large plant response rating (crabgrass, large [16]; [18]): 60
- Crabgrass, Large plant response rating (crabgrass, large [16]; [19]): 30
- Wheat plant response rating (wheat [17]; [24]): 0
- Wheat plant response rating (wheat [17]; [25]): 60

SMILES: CCc1cc(C(=O)NCC(F)(F)F)nn1Oc1ccnc(C(F)(F)F)c1 [Compound 84]
- Velvetleaf plant response rating (velvetleaf [1]; [18]): 30
- Velvetleaf plant response rating (velvetleaf [1]; [19]): 20
- Plant response rating, Ducksalad (ducksalad): 20
- Wheat plant response rating (wheat [2]; [18]): 40
- Wheat plant response rating (wheat [2]; [19]): 0
- Pigweed plant response rating (pigweed [3]; [18]): 20
- Pigweed plant response rating (pigweed [3]; [19]): 10
- Barnyardgrass plant response rating (barnyardgrass [4]; [20]): 70
- Barnyardgrass plant response rating (barnyardgrass [4]; [21]): 10
- Morningglory plant response rating (morningglory [5]; [18]): 70
- Morningglory plant response rating (morningglory [5]; [19]): 20
- Foxtail, Giant plant response rating (foxtail, giant [6]; [20]): 80
- Foxtail, Giant plant response rating (foxtail, giant [6]; [21]): 40
- Barnyardgrass plant response rating (barnyardgrass [7]; [22]): 10
- Barnyardgrass plant response rating (barnyardgrass [7]; [23]): 30
- Plant response rating, Sedge, Umbrella (sedge, umbrella): 60
- Plant response rating, Rice (rice): 0
- Morningglory plant response rating (morningglory [8]; [20]): 30
- Morningglory plant response rating (morningglory [8]; [21]): 0
- Crabgrass, Large plant response rating (crabgrass, large [9]; [20]): 100
- Crabgrass, Large plant response rating (crabgrass, large [9]; [21]): 90
- Pigweed plant response rating (pigweed [10]; [20]): 100
- Pigweed plant response rating (pigweed [10]; [21]): 50
- Velvetleaf plant response rating (velvetleaf [11]; [20]): 50
- Velvetleaf plant response rating (velvetleaf [11]; [21]): 0
- Foxtail, Giant plant response rating (foxtail, giant [12]; [18]): 50
- Foxtail, Giant plant response rating (foxtail, giant [12]; [19]): 10
- Corn plant response rating (corn [13]; [20]): 40
- Corn plant response rating (corn [13]; [21]): 10
- Corn plant response rating (corn [14]; [18]): 40
- Corn plant response rating (corn [14]; [19]): 10
- Plant response rating, Barnyardgrass (barnyardgrass [15]): 0
- Crabgrass, Large plant response rating (crabgrass, large [16]; [18]): 50
- Crabgrass, Large plant response rating (crabgrass, large [16]; [19]): 20
- Wheat plant response rating (wheat [17]; [24]): 0
- Wheat plant response rating (wheat [17]; [25]): 50
